Results on 23 compounds are retold here after patent US9018215B2, “Heteroaromatic compounds, medicaments containing said compounds, use thereof and processes for the preparation thereof” (Boehringer Ingelheim International GmbH, priority 2013, dated 2015).

In this experiment the target is T1, ENaC (Epithelial Sodium Channel) (Mus musculus, UniProt Q61180+Q9WU38+Q9WU39).
T1 construct: Mouse kidney M-1 cells were cultivated in DMEM containing 5% FCS and 5 μM dexamethasone; endogenous in cells; host or cells: mouse kidney M-1 cells
T1 sequence (Q61180 1-699): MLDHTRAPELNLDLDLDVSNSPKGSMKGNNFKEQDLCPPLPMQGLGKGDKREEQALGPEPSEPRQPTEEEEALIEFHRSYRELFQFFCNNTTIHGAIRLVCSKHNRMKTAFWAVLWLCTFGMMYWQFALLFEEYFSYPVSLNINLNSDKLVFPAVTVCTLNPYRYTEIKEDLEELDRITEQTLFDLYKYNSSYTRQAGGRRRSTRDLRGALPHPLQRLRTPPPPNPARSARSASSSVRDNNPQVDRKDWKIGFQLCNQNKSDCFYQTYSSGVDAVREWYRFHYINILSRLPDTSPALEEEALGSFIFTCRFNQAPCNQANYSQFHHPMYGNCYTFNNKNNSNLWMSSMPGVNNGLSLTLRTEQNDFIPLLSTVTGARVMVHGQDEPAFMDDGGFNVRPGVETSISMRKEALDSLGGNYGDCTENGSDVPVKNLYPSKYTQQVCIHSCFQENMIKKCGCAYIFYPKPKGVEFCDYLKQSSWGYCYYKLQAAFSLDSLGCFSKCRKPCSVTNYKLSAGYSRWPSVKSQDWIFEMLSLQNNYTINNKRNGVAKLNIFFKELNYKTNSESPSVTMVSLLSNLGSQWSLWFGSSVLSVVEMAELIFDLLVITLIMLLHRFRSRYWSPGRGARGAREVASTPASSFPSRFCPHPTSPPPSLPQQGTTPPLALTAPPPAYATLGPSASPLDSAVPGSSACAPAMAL
T1 sequence (Q9WU38 1-638): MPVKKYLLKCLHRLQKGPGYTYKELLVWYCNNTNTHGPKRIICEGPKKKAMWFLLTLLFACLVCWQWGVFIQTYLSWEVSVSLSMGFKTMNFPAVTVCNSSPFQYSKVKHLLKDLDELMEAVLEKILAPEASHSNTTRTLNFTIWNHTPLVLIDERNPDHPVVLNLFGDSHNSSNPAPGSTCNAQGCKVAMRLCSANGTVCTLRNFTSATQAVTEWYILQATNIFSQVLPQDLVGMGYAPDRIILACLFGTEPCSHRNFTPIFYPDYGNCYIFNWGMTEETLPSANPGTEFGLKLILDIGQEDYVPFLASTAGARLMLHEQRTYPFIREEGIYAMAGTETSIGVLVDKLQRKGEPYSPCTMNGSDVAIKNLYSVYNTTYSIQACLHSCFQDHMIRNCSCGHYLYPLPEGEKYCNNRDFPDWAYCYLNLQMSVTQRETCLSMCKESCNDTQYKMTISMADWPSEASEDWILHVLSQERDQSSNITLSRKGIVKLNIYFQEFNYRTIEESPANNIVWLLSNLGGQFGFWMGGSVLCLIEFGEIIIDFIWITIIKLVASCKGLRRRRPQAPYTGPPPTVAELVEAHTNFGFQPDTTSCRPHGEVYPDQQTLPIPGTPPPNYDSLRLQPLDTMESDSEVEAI
T1 sequence (Q9WU39 1-655): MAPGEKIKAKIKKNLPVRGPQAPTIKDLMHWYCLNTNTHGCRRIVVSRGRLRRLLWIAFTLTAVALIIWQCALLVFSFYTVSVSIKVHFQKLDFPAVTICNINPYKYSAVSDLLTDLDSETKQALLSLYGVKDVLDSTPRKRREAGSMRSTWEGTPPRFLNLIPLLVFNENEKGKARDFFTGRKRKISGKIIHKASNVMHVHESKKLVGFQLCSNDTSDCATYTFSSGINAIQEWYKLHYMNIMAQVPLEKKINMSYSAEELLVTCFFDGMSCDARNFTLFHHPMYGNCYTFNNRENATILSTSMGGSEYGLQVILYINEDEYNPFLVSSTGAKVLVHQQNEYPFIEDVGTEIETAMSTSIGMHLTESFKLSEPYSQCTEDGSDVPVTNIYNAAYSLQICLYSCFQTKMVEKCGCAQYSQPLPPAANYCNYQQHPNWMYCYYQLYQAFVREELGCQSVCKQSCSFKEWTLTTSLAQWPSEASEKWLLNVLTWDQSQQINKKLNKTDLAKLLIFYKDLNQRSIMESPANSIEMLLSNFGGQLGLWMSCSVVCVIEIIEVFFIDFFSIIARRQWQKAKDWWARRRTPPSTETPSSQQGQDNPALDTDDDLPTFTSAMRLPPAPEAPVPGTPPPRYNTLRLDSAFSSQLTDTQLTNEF
The experiment can be described thus: Ussing chamber assay: short circuit current (I_sc) in M-1 cells, inhibition of the amiloride sensitive I_SC. The note with it: Mouse kidney M-1 cells on transwell filters, compounds added to the apical solution, 37° C., voltage-clamp mode. The class given is cell-based. Here is the method:
Mouse kidney M-1 cells were cultivated in DMEM containing 5% FCS and 5 μM dexamethasone for 10 to 12 days on polyester transwell filters. Filters were inserted into a teflon-coated well-plate which fit into the in-house ussing chamber system. Prior to measurement the medium of M-1 cells was replaced with Caco-2 transport buffer (Invitrogen, Germany). During measurements, the Ussing chamber temperature was kept at 37° C. Short circuit currents (I_sc) were measured in the voltage-clamp mode using an in-house built amplifier (Boehringer Ingelheim, Biberach) with the software package Lab View for data acquisition and analysis. The transepithelial electrical resistance (TEER) was determined by the application of voltage steps of ±5 mV every 5 sec. Compounds were administered at a final concentration of 3 μM or at increasing concentrations (1-3-10 μM) to the apical solution. At the end of each experiment the amiloride sensitive I_SC was measured by adding 3 μM amiloride to the apical compartment. Results are expressed as inhibition in percent of the amiloride effect or as IC50. With the example compounds given above, the following IC50 values were determined in the Ussing Chamber assay: […]
For the compound `COC(=O)c1cc(CN2CCC(N/C(N)=N/C(=O)c3nc(Cl)c(N)nc3N)CC2)ccn1` [Example 1.1], the concentration for half-maximal inhibition (IC50) (usually the concentration that inhibits the measured activity by half) came to 3 nM.

`NC(=NC(=O)c1nc(Cl)c(N)nc1N)NC1CCN(Cc2ccnc(C(=O)N(CCO)CCO)c2)CC1` [Example 1.2] gave an IC50 of 10 nM.

On to `NC(=NC(=O)c1nc(Cl)c(N)nc1N)NC1CCN(Cc2cn3cc(C(=O)NCCOCCO)ccc3n2)CC1` [Example 1.3], for which half-maximal inhibition (IC50) was put at 18 nM. This IC50 is about 1.8-fold higher than that of the compound before. `NC(=NC(=O)c1nc(Cl)c(N)nc1N)NC1CCN(Cc2ccc(CCc3cccnc3)nc2)CC1` [Example 1.4]: the midpoint of inhibition, the IC50, lay at 3 nM. `NC(=NC(=O)c1nc(Cl)c(N)nc1N)NC1CCN(Cc2ccccn2)CC1` [Example 1.5] came in with an IC50 of 15 nM. `NC(=NC(=O)c1nc(Cl)c(N)nc1N)NC1CCN(Cc2ccc(=O)n(Cc3cccnc3)c2)CC1` [Example 1.6] registered an IC50 of 9 nM. Compared with the last compound, the IC50 is about 1.7-fold lower.

`COC(=O)c1ccc2nc(CN3CCC(NC(N)=NC(=O)c4nc(Cl)c(N)nc4N)CC3)cn2c1` [Example 1.7]: the IC50 amounted to 4 nM. This IC50 lies about 2.2-fold lower than the previous one. Compound `NC(=NC(=O)c1nc(Cl)c(N)nc1N)NC1CCN(Cc2cn3cc(C(=O)NCCO)ccc3n2)CC1` [Example 1.8] returned a 50% inhibitory concentration (IC50) of 11 nM. Under `NC(=NC(=O)c1nc(Cl)c(N)nc1N)NC1CCN(Cc2cscn2)CC1` [Example 1.9] stands 17 nM; under `NC(=NC(=O)c1nc(Cl)c(N)nc1N)NC1CCN(Cc2nc3ccccc3c(=O)[nH]2)CC1` [Example 1.10], 4 nM; under `COC(=O)c1ccc(CN2CCC(NC(N)=NC(=O)c3nc(Cl)c(N)nc3N)CC2)s1` [Example 1.11], 3 nM. In the case of `C#Cc1cncc(CN2CCC(NC(N)=NC(=O)c3nc(Cl)c(N)nc3N)CC2)c1` [Example 1.12] it was 4 nM; in that of `NC(=NC(=O)c1nc(Cl)c(N)nc1N)NC1CCN(Cc2cn3cc(I)ccc3n2)CC1` [Example 1.13], 3 nM; in that of `NC(=NC(=O)c1nc(Cl)c(N)nc1N)NC1CCN(Cc2ccnc(C(=O)NCCOCCO)c2)CC1` [Example 1.14], 4 nM.

On to `NC(=NC(=O)c1nc(Cl)c(N)nc1N)NC1CCN(Cc2cn3ccccc3n2)CC1` [Example 1.15], for which the IC50 is 6 nM.

Take `NC(=NC(=O)c1nc(Cl)c(N)nc1N)NC1CCN(Cc2nc3ccccc3[nH]2)CC1` [Example 1.16]: the IC50 turned out to be 5 nM. This IC50 and that of the compound before are within 1.5-fold of each other. In the case of `NC(=NC(=O)c1nc(Cl)c(N)nc1N)NC1CCN(Cc2ccc(Br)nc2)CC1` [Example 1.17] it was 5 nM; in that of `COC(=O)c1cc(CN2CCC(N/C(N)=N/C(=O)c3nc(Br)c(N)nc3N)CC2)ccn1` [Example 1.19], 4 nM. In the case of `N/C(=N\C(=O)c1nc(Cl)c(N)nc1N)NC1CCN(Cc2ccc(=O)n(Cc3cn(Cc4ccccn4)nn3)c2)CC1` [Example 2.1], the IC50 was 6 nM. Turning to `N/C(=N\C(=O)c1nc(Cl)c(N)nc1N)NC1CCN(Cc2cncc(-c3cn(CCOCCOCCOCCO)nn3)c2)CC1` [Example 2.2], the IC50 is 12 nM. Regarding `N/C(=N\C(=O)c1nc(Cl)c(N)nc1N)NC1CCN(Cc2ccnc(C(=O)O)c2)CC1` [Example 3.1], the IC50 is 21 nM. `N/C(=N\C(=O)c1nc(Cl)c(N)nc1N)NC1CCN(Cc2ccc(C(=O)O)s2)CC1` [Example 3.2]: the IC50 came out at 31 nM. As for `N/C(=N\C(=O)c1nc(Br)c(N)nc1N)NC1CCN(Cc2ccnc(C(=O)O)c2)CC1` [Example 4.1], 16 nM corresponded to half-maximal inhibition (IC50).
